Laboratory results reported in article PMC6737591, “Abstracts from the 22nd International Symposium on Signal Transduction at the Blood–Brain Barriers” (Fluids and Barriers of the CNS, 2019).

Key:
[1] = biological target: T1, Creatine transporter (CRT) (Homo sapiens, UniProt P48029); test: [14C]cyclocreatine / [14C]creatine uptake by HEK293 cells; type: cell-based; parameters: endogenous in cells; host or cells: HEK293 cells; conditions: for inhibition of uptake by CRT-targeting siRNA: CRT protein expression reduced by 42%, substrate 9 µM
T1 sequence (P48029 1-635): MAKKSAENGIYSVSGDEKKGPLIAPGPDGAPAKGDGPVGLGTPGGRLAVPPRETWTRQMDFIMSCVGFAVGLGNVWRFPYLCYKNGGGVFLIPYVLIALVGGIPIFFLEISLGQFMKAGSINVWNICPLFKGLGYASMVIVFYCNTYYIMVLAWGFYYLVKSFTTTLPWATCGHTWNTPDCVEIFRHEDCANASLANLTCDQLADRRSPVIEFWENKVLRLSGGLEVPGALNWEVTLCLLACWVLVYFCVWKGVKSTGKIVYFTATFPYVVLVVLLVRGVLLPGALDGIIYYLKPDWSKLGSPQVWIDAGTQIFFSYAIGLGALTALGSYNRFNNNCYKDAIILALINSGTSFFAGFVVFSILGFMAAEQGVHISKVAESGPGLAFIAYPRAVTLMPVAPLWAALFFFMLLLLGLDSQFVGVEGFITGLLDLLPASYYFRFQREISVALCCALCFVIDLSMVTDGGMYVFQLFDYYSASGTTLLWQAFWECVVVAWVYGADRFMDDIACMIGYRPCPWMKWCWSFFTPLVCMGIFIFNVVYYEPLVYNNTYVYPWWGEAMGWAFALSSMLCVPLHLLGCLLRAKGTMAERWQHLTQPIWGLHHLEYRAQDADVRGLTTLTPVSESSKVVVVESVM
Method: (§1) Methods: Cells were incubated with [14C]cyclocreatine (9 µM) and [14C]creatine (9 µM) for the indicated times at 37 °C in the presence or absence of several compounds. siRNAs were transfected by lipofection. Protein and mRNA expressions were quantified by LC–MS/MS and qPCR, respectively.

[2] = biological target: T1, Creatine transporter (CRT); test: [14C]cyclocreatine / [14C]creatine uptake by hCMEC/D3 cells; type: cell-based; parameters: hCMEC/D3 cells, which are immortalized human brain microvascular endothelial cells; endogenous in cells; host or cells: hCMEC/D3 cells; conditions: for suppression of [14C]cyclocreatine uptake: [14C]cyclocreatine 9 µM, 37 °C; for inhibition of uptake by CRT-targeting siRNA: CRT mRNA expression reduced by 97%, substrate 9 µM
Method: as §1

[3] = test system: Rat primary brain endothelial, pericyte and astroglial cell cultures; test: Kainate damage and drug protection in BBB culture model
Description: In animal models of epilepsy induced by kainic acid, the primary ligand of ionotropic kainate receptors, BBB damage occurs, but the effect of kainate on brain endothelial cells has not been studied. Our aim was to examine the presence of kainate receptors and the effects of kainate on cultured cells of the BBB and to test anti-inflammatory and antioxidant drugs to protect against kainate-induced changes. Rat primary brain endothelial, pericyte and astroglial cell cultures were used to study cell viability by impedance measurement and cell morphology. BBB permeability was measured on a model made from the three cell types. The production of nitrogen monoxide and reactive oxygen species was followed by fluorescent probes. Four drugs were tested to protect against kainate-induced changes. The mRNA expression of kainate receptors and nitric oxide synthases (NOS) were studied by RT-PCR.

transgenic hAPP mice = test: PCN or NAC purified diet in transgenic hAPP mice; type: in vivo
Description: Methods: To test our hypothesis, transgenic hAPP mice received a purified diet containing the PXR activator pregnenolone 16α-carbonitrile (PCN) or the ROS scavenger N-acetyl-L-cysteine (NAC). We assessed P-gp protein expression and transport activity, Aβ brain and plasma levels, capillary leakage, renal function and cognition to test the PCN or NAC effect in hAPP mice.

[4] = test system: murine brain microvascular endothelial cells (MBMECs); test: NMDAR modulators on brain endothelial cells (electrophysiology, Ca2+, TEER, migration); type: cell-based; conditions: for NMDAR mediated current: whole cell recorded MBMECs, compared to control conditions
Description: In neurodegenerative disorders, concentrations of extracellular neurotransmitter in the central nervous system (CNS) are out of balance. Glutamatergic dysregulation and extracellular glycine accumulation cause excitotoxicity and subsequent neuronal death. This process is largely mediated by N-methyl-D-aspartate receptor (NMDAR) activation. NMDARs are ionotropic receptors permeable for positive ions. In the CNS, they are composed by two obligatory NR1 subunits containing glycine binding sites and two NR2 subunits that are activated by glutamate. NR3 subunits which are less abundant in the CNS are activated by glycine. While neuronal NMDARs are well studied, their functional role on endothelial cells (ECs) is still to be investigated. ECs of the Blood Brain Barrier (BBB) are exposed to the extracellular milieu of the CNS and therefore to high concentrations of neurotransmitters. In this study, we investigated the effect of NMDAR modulators on murine brain microvascular endothelial cells (MBMECs).

[5] = Chemical stability in cell media supplemented with 10% FBS by UPLC; type: in vitro ADME; conditions: for % of initial remained intact: UPLC, cell media supplemented with 10% FBS, 4 h incubation, fluorophore-labelled constructs
Description: All constructs were stable in PBS.

astrocytes = test: Uptake in astrocytes cultured on the basolateral (brain) side; type: cell-based; conditions: rat astrocytes below bovine brain endothelial cells; fluorophore-labelled
Method: The propensity of Tat to facilitate brain endothelial cell adherence -and uptake as well as BBB permeation of NR2B9c and the N-dimer was assessed using primary bovine brain endothelial cells cultured in contact with rat astrocytes4.

[6] = test system: primary mouse brain microvascular endothelial cells (pMBMECs); test: Effector OT-I CD8+ T-cell interaction with antigen-pulsed pMBMECs under physiological flow; type: cell-based; conditions: SIINFEKL and MHC class I on WT pMBMECs
Description: Methods and results: We used primary mouse brain microvascular endothelial cells (pMBMECs) as an in vitro model for BBB. […] We next investigated, if naive CD8+ T cells can interact with pMBMECs under physiological flow. […] This prompted us to investigate how endothelial Ag-presentation contributes to the interaction of effector OT-I CD8+ T-cells with pMBMECs under physiological flow.

[7] = substrate: NC1=NCCN1CC(=O)O; test: [14C]cyclocreatine / [14C]creatine uptake by HEK293 cells; type: cell-based; conditions: other: HEK293 cells, 37 °C, saturable kinetics
Method: as §1

[8] = 12-month old mice treated for 3 weeks

NC(N)=NCCC(=O)O [GPA, guanidinopropionic acid]
inhibition of [14C]cyclocreatine uptake ([1]; HEK293 cells, inhibitor 10 mM, [14C]cyclocreatine 9 µM, 37 °C): 96%
suppression of [14C]cyclocreatine uptake [2]: 91%

C=C(C)[C@H]1CN[C@H](C(=O)O)[C@H]1CC(=O)O [Kainate, kainic acid]
production of nitric oxide (NO) in brain endothelial cells ([3]; fluorescent probes): increased
viability or morphology of astroglial cells ([3]; rat primary astroglial cells): unchanged
effect on brain endothelial cells (viability by impedance) ([3]; rat primary brain endothelial cells, concentration- and time-dependent): damaged

CC(=O)N[C@@H](CS)C(=O)O [NAC, N-acetyl-L-cysteine]
barrier leakage (transgenic hAPP mice; [8]): reduced
renal function (transgenic hAPP mice; [8]): improved

CC(=O)[C@H]1[C@H](C#N)C[C@H]2[C@@H]3CC=C4C[C@@H](O)CC[C@]4(C)[C@H]3CC[C@@]21C [PCN, pregnenolone 16α-carbonitrile]
Aβ brain levels (transgenic hAPP mice; hAPP mice fed for 21 months): lowered
P-gp protein expression and transport activity (transgenic hAPP mice; hAPP mice fed for 21 months): restored
cognition (transgenic hAPP mice; hAPP mice fed for 21 months): improved

NC1=NCCN1CC(=O)O [[14C]cyclocreatine, cyclocreatine]
inhibition of uptake by CRT-targeting siRNA ([1]; HEK293 cells): 33%
inhibition of uptake by CRT-targeting siRNA [2]: 70%

CN(CC(=O)O)C(=N)N [creatine]
inhibition at 10000 µM ([1]; HEK293, read-out: inhibition of [14C]cyclocreatine uptake): 97%
inhibition of uptake by CRT-targeting siRNA ([1]; HEK293 cells): 37%
inhibition of uptake by CRT-targeting siRNA [2]: 63%
suppression of [14C]cyclocreatine uptake [2]: 91%

CC1=NN(c2ccccc2)C(=O)C1 [edaravone]
protection against the reduced cell viability and increased permeability caused by kainate ([3]; kainate-treated cells / BBB model): protected

N[C@@H](CCC(=O)O)C(=O)O [glutamate]
transendothelial electrical resistance (TEER) ([4]; MBMECs): No changes
NMDAR mediated current [4]: did neither evoke any

NCC(=O)O [glycine]
MBMEC migration ([4]; MBMECs): impaired
intracellular Ca2+ levels ([4]; MBMECs): increase
transendothelial electrical resistance (TEER) ([4]; MBMECs): reduced
NMDAR mediated current [4]: bigger

O=C(O)c1cccnc1C(=O)O [quinolinic acid]
transendothelial electrical resistance (TEER) ([4]; MBMECs): No changes
NMDAR mediated current [4]: did neither evoke any

NR2B9c: clinically relevant peptide drug entity (1 kDa) (KLSSIESDV; UniProt Q13224 1476-1484, looked up, fragment)
% of initial remained intact [5]: ~ 90%
uptake in astrocytes cultured on the basolateral (brain) side (astrocytes): not

SIINFEKL [cognate peptide antigen for OT-I CD8+ T cells]
T-cell crawling [6]: prohibited
T-cell migration rates [6]: decreased

Tat: 11-residue cationic peptide, tool to facilitate delivery of peptide drug entities into cells and across barriers
% of initial remained intact [5]: ~ 50%
integrity in cell media (in words) ([5]; cell media, conclusion statement): extensive degradation
uptake in astrocytes cultured on the basolateral (brain) side (astrocytes): observed

B1: Creatine transporter (CRT) (Homo sapiens) (protein)
chain: T1 sequence (P48029 1-635)
notes: endogenous in cells; host or cells: HEK293 cells
Km [7]: 188 µM
Vmax [7]: 273 pmol/mg protein/min
